Patent US7250515B2, “Thiazolinone 3,4-disubstituted quinolines” (Hoffman-La Roche Inc., priority 2004, dated 2007)
pKi: −log10 of the molar value. Where a name gives a salt, the structure may show the parent alone.

These molecules were tested against T1, recombinant human CDK1/Cyclin B complex (Homo sapiens, UniProt P06493) (assay: CDK1/Cyclin B kinase assay (FlashPlate or HTRF), Rb protein substrate). Settings: Ki=IC50/(1+[S]/Km).
T1 construct: made in house; host or cells: High Five insect cells (baculovirus); Rb substrate made in E. coli M15
Format: biochemical
Experimental: To determine inhibition of CDK1 activity, either FlashPlate™ (NEN™-Life Science Products) assay or HTRF assay was performed. Both types of kinase assays were carried out using recombinant human CDK1/Cyclin B complex. GST-cyclinB (GST-cycB) and CDK1cDNA clones in baculovirus vectors were provided by Dr. W. Harper at the Baylor College of Medicine, Houston, Tex. Proteins were co-expressed in High Five™ insect cells and the complex was purified on glutathione Sepharose resin (Pharmacia, Piscataway, N.J.) as previously described (Harper, J. W. et al. Cell 1993, 75, 805-816). A 6×-Histidine tagged truncated form of retinoblastoma (Rb) protein (amino acid 386-928) was used as the substrate for the CDK1/Cyclin B assay (the expression plasmid was provided by Dr. Veronica Sullivan, Department of Molecular Virology, Roche Research Centre, Welwyn Garden City, United Kingdom). The Rb protein is a natural substrate for phosphorylation by CDK1 (see Herwig and Strauss Eur. J. Biochem. Vol. 246 (1997) pp. 581-601 and the references cited therein). The expression of the 62 Kd protein was under the control of an IPTG inducible promoter in an M15 E. coli strain. Cells were lysed by sonication and purification was carried out by binding lysates at pH 8.0 to a Ni-chelated agarose column pretreated with 1 mM imidazole. The resin was then washed several times with incrementally decreasing pH buffers to pH 6.0, and eluted with 500 mM imidazole. Eluted protein was dialyzed against 20 mM HEPES pH 7.5, 30% glycerol, 200 mM NaCl, and 1 mM DTT. Purified Rb fusion protein stocks were quantitated for protein concentration, aliquoted, and stored at −70° C.
For the FlashPlate kinase assay, 96-well FlashPlates were coated with Rb protein at 10 μg/ml, using 100 μl per well. Plates were incubated at 4° C. overnight or at room temperature for 3 hours on a shaker. To control for nonspecific phosphorylation, one row of wells was coated with 100 μl/well coating buffer (20 mM HEPES, 0.2 M NaCl). Plates were then washed twice with wash buffer (0.01% Tween 20 in phosphate-buffered saline). Compounds to be tested (“test compounds”) were added to the wells at 5× final concentration. Reactions were initiated by immediate addition of 40 μl reaction mix (25 mM HEPES, 20 mM MgCl2, 0.002% Tween 20, 2 mM DTT, 1 μM ATP, 4 nM 33P-ATP) and a sufficient amount of enzyme to give counts that were at least 10-fold above background. Plates were incubated at room temperature on a shaker for 30 minutes. Plates were washed four times with the wash buffer, sealed, and counted on the TopCount scintillation counter (Packard Instrument Co., Downers Grove, Ill.]. The percent inhibition of Rb phosphorylation, which is a measure of the inhibition of CDK activity, was determined according to the following formula:
[formula] where “test compound” refers to the average counts per minute of the test duplicates, “nonspecific” refers to the average counts per minute when no CDK1/Cyclin B, etc., was added, and “total” refers to the average counts per minute when no compound was added. The IC50 value is the concentration of test compound that reduces by 50% the protein-kinase induced incorporation of the radiolabel under the test conditions described. The value of the inhibitor constant Ki is calculated by the following: Ki=IC50/(1+[S]/Km), where [S] is the ATP concentration and Km is Michaelis constant.
The Homofeneous Time Resolved Fluorescence (HTRF) kinase assay was carried out in 96-well polypropylene plates (BD Biosciences, Bedford, Mass.). Test compounds were first dissolved in DMSO, and then diluted in kinase assay buffer 1 (25 mM HEPES, pH7.0, 8 mM MgCl2, 1.5 mM DTT, and 162 μM ATP) with DMSO concentration at 15%. The CDK1/Cyclin B enzyme was diluted in kinase assay buffer 2 (25 mM HEPES, pH 7.0, 8 mM MgCl2, 0.003% Tween 20, 0.045% BSA, 1.5 mM DTT, and 0.675 μM Rb protein). […]

T1 sequence (P06493 whole entry): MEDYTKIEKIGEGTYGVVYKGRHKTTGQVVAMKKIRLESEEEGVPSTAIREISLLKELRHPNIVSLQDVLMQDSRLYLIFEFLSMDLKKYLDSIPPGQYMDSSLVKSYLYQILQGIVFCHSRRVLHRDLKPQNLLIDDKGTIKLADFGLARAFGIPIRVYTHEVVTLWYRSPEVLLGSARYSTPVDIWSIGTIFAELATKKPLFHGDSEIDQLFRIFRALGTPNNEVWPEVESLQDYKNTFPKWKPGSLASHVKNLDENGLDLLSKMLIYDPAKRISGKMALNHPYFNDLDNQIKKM
T1 sequence (P14635 whole entry partner): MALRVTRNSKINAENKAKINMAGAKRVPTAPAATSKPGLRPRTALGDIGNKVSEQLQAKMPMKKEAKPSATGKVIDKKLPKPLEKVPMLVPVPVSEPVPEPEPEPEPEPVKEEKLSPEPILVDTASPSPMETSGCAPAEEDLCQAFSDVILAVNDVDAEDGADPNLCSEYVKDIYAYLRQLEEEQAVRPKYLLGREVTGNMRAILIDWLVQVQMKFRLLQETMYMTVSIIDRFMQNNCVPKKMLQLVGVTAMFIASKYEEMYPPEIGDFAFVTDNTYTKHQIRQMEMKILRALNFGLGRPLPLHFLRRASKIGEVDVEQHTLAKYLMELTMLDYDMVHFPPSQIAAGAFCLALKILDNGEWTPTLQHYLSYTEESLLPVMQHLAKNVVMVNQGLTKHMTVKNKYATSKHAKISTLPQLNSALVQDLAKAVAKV

SMILES	pKi
COC(=O)c1cnc2ccc(/C=C3\SC(N[C@@H](CO)c4ccccc4)=NC3=O)cc2c1OC [Example 5, 6-[2-((R)-2-Hydroxy-1-phenyl-ethylamino)-4-oxo-4H-thiazol-(5Z)-ylidenemethyl]-4-methoxy-quinoline-3-carboxylic acid methyl ester]	6.75
COc1c(C(=O)N(C)C)cnc2ccc(/C=C3\SC(N[C@@H]4C[C@H]4c4ccccc4)=NC3=O)cc12 [Example 10, 4-Methoxy-6-[4-oxo-2-((1R,2S)-2-phenyl-cyclopropylamino)-4H-thiazol-(5Z)-ylidenemethyl]-quinoline-3-carboxylic acid dimethylamide]	6.02
CCOc1c(C#N)cnc2ccc(/C=C3\SC(NCCn4ccnc4)=NC3=O)cc12 [Example 20, 4-Ethoxy-6-[2-(2-imidazol-1-yl-ethylamino)-4-oxo-4H-thiazol-(5Z)-ylidenemethyl]-quinoline-3-carbonitrile]	6.64
CCOc1c(C#N)cnc2ccc(/C=C3\SC(NCCOCCOC)=NC3=O)cc12 [Example 25, 6-[2-[2-(2-methoxy-ethoxy)-ethylamino]-4-oxo-4H-thiazol-(5Z)-ylidenemethyl]-4-ethoxy-quinoline-3-carbonitrile]	6.00
N#Cc1cnc2ccc(/C=C3\SC(N)=NC3=O)cc2c1OC1CCNCC1 [Example 30, 6-[2-Amino-4-oxo-4H-thiazol-(5Z)-ylidenemethyl]-4-(piperidin-4-yloxy)-quinoline-3-carbonitrile hydrochloride]	6.74
N#Cc1cnc2ccc(/C=C3\SC(N)=NC3=O)cc2c1SCCCO [Example 50, 6-[2-Amino-4-oxo-4H-thiazol-(5Z)-ylidenemethyl]-4-(3-hydroxy-propylsulfanyl)-quinoline-3-carbonitrile]	7.19
CCCCOc1c(C#N)cnc2ccc(/C=C3\SC(N)=NC3=O)cc12 [Example 80, 6-[2-Amino-4-oxo-4H-thiazol-(5Z)-ylidenemethyl]-4-butoxy-quinoline-3-carbonitrile]	9.00

Continued, values first:

pKi	SMILES
8.10	CCOc1c(C#N)cnc2ccc(/C=C3\SC(N)=NC3=O)cc12 [Example 15, 6-[2-Amino-4-oxo-4H-thiazol-(5Z)-ylidenemethyl]-4-ethoxy-quinoline-3-carbonitrile]
7.80	CC(C)Sc1c(C#N)cnc2ccc(/C=C3\SC(N)=NC3=O)cc12 [Example 40, 6-[2-amino-4-oxo-4H-thiazol-(5Z)-ylidenemethyl]-4-isopropylsulfanyl-quinoline-3-carbonitrile]
7.55	CC(C)Oc1c(C#N)cnc2ccc(/C=C3\SC(NN)=NC3=O)cc12 [Example 60, 6-[2-Hydrazino-4-oxo-4H-thiazol-(5Z)-ylidenemethyl]-4-isopropoxy-quinoline-3-carbonitrile hydrochloride salt]
8.22	CC(C)(C)COc1c(C#N)cnc2ccc(/C=C3\SC(NC4CC4)=NC3=O)cc12 [Example 70, 6-[2-Cyclopropylamino-4-oxo-4H-thiazol-(5Z)-ylidenemethyl]-4-(2,2-dimethyl-propoxy)-quinoline-3-carbonitrile]
